Converted amounts (≈) assume the structure as drawn.
Experiments:
Klebsiella pneumoniae [1] = experiment: Antibacterial activity against Klebsiella pneumoniae D expressing CTX-M group 1 beta-lactamase by Etest method; assay type: functional
Klebsiella pneumoniae [2] = experiment: Antibacterial activity against Klebsiella pneumoniae A expressing CTX-M group 1 beta-lactamase by Etest method; assay type: functional
Klebsiella pneumoniae [3] = experiment: Antibacterial activity against Klebsiella pneumoniae C expressing CTX-M group 1 beta-lactamase by Etest method; assay type: functional
Klebsiella pneumoniae [4] = experiment: Antibacterial activity against Klebsiella pneumoniae B expressing CTX-M group 1 beta-lactamase by Etest method; assay type: functional
Klebsiella pneumoniae [5] = experiment: Antibacterial activity against Klebsiella pneumoniae expressing CTX-M group 1 beta-lactamase by Etest method; assay type: functional
Klebsiella pneumoniae [6] = experiment: Antibacterial activity against Klebsiella pneumoniae D expressing CTX-M group 1 beta-lactamase by Etest method in presence of Tazobactam; assay type: functional
Escherichia coli [7] = experiment: Antibacterial activity against Escherichia coli TrC A expressing Klebsiella pneumoniae A blaCTX-M beta-lactamase by Etest method; assay type: functional
Escherichia coli [8] = experiment: Antibacterial activity against rifampicin resistant Escherichia coli J53-2 by Etest method
Escherichia coli [9] = experiment: Antibacterial activity against Escherichia coli TrC B expressing Klebsiella pneumoniae B blaCTX-M beta-lactamase by Etest method; assay type: functional
Klebsiella pneumoniae [10] = experiment: Antibacterial activity against Klebsiella pneumoniae B expressing CTX-M group 1 beta-lactamase by Etest method in presence of Tazobactam; assay type: functional
Klebsiella pneumoniae [11] = experiment: Antibacterial activity against Klebsiella pneumoniae A expressing CTX-M group 1 beta-lactamase by Etest method in presence of Tazobactam; assay type: functional
Escherichia coli [12] = experiment: Antibacterial activity against Escherichia coli TrC C expressing Klebsiella pneumoniae C blaCTX-M beta-lactamase by Etest method; assay type: functional
Klebsiella pneumoniae [13] = experiment: Antibacterial activity against Klebsiella pneumoniae expressing CTX-M group 1 beta-lactamase by Etest method in presence of Tazobactam; assay type: functional
Klebsiella pneumoniae [14] = experiment: Antibacterial activity against Klebsiella pneumoniae C expressing CTX-M group 1 beta-lactamase by Etest method in presence of Tazobactam; assay type: functional
Klebsiella pneumoniae [15] = experiment: Antibacterial activity against Klebsiella pneumoniae C expressing CTX-M group 1 beta-lactamase by Etest method in presence of clavulanic acid; assay type: functional
Klebsiella pneumoniae [16] = experiment: Antibacterial activity against Klebsiella pneumoniae expressing CTX-M group 1 beta-lactamase by Etest method in presence of clavulanic acid; assay type: functional
Klebsiella pneumoniae [17] = experiment: Antibacterial activity against Klebsiella pneumoniae B expressing CTX-M group 1 beta-lactamase by Etest method in presence of clavulanic acid; assay type: functional
Escherichia coli [18] = experiment: Antibacterial activity against Escherichia coli TrC A expressing Klebsiella pneumoniae A blaCTX-M beta-lactamase by Etest method in presence of clavulanic acid
Escherichia coli [19] = experiment: Antibacterial activity against Escherichia coli TrC C expressing Klebsiella pneumoniae C blaCTX-M beta-lactamase by Etest method in presence of clavulanic acid
Klebsiella pneumoniae [20] = experiment: Antibacterial activity against Klebsiella pneumoniae D expressing CTX-M group 1 beta-lactamase by Etest method in presence of clavulanic acid; assay type: functional
Escherichia coli [21] = experiment: Antibacterial activity against rifampicin resistant Escherichia coli J53-2 by Etest method in presence of clavulanic acid; assay type: functional
Klebsiella pneumoniae [22] = experiment: Antibacterial activity against Klebsiella pneumoniae A expressing CTX-M group 1 beta-lactamase by Etest method in presence of clavulanic acid; assay type: functional
Escherichia coli [23] = experiment: Antibacterial activity against Escherichia coli TrC B expressing Klebsiella pneumoniae B blaCTX-M beta-lactamase by Etest method in presence of clavulanic acid

| Compound | MIC (Klebsiella pneumoniae [1]) [µg/mL] | MIC50 (Klebsiella pneumoniae [1]) [µg/mL] | MIC90 (Klebsiella pneumoniae [1]) [µg/mL] | MIC (Klebsiella pneumoniae [2]) [µg/mL] | MIC50 (Klebsiella pneumoniae [2]) [µg/mL] | MIC90 (Klebsiella pneumoniae [2]) [µg/mL] | MIC (Klebsiella pneumoniae [3]) [µg/mL] | MIC50 (Klebsiella pneumoniae [3]) [µg/mL] | MIC90 (Klebsiella pneumoniae [3]) [µg/mL] | MIC (Klebsiella pneumoniae [4]) [µg/mL] | MIC50 (Klebsiella pneumoniae [4]) [µg/mL] | MIC90 (Klebsiella pneumoniae [4]) [µg/mL] | MIC (Klebsiella pneumoniae [5]) [µg/mL] | MIC50 (Klebsiella pneumoniae [5]) [µg/mL] | MIC90 (Klebsiella pneumoniae [5]) [µg/mL] | MIC (Escherichia coli [7]) [µg/mL] | MIC (Escherichia coli [8]) [µg/mL] | MIC (Escherichia coli [9]) [µg/mL] | MIC (Escherichia coli [12]) [µg/mL] | further results |
| --- | --- | --- | --- | --- | --- | --- | --- | --- | --- | --- | --- | --- | --- | --- | --- | --- | --- | --- | --- | --- |
| CC1(C)S[C@@H]2[C@H](NC(=O)[C@H](N)c3ccc(O)cc3)C(=O)N2[C@H]1C(=O)O [AMOXICILLIN] | 6 (≈ 16.4 µM) | 16 (≈ 43.8 µM) | 16 (≈ 43.8 µM) | 4 (≈ 10.9 µM) | 8 (≈ 21.9 µM) | 8 (≈ 21.9 µM) | 6 (≈ 16.4 µM) | 16 (≈ 43.8 µM) | 64 (≈ 175 µM) | 12 (≈ 32.8 µM) | 16 (≈ 43.8 µM) | 16 (≈ 43.8 µM) | 8 (≈ 21.9 µM) | 16 (≈ 43.8 µM) | > 256 | – | – | – | – | – |
| CCN1CCN(C(=O)N[C@@H](C(=O)N[C@@H]2C(=O)N3[C@@H]2SC(C)(C)[C@@H]3C(=O)O)c2ccccc2)C(=O)C1=O [PIPERACILLIN] | – | – | – | – | – | – | – | – | – | – | – | – | – | – | – | > 64 | 4 (≈ 7.73 µM) | > 64 | > 64 | MIC (Klebsiella pneumoniae [6]): 4 µg/mL; MIC50 (Klebsiella pneumoniae [6]): 12 µg/mL; MIC90 (Klebsiella pneumoniae [6]): 24 µg/mL; MIC (Klebsiella pneumoniae [10]): 32 µg/mL; MIC50 (Klebsiella pneumoniae [10]): 64 µg/mL; MIC90 (Klebsiella pneumoniae [10]): > 256 µg/mL; MIC (Klebsiella pneumoniae [11]): 2 µg/mL; MIC50 (Klebsiella pneumoniae [11]): 3 µg/mL; MIC90 (Klebsiella pneumoniae [11]): 12 µg/mL; MIC (Klebsiella pneumoniae [13]): 3 µg/mL; MIC50 (Klebsiella pneumoniae [13]): 12 µg/mL; MIC90 (Klebsiella pneumoniae [13]): > 256 µg/mL; MIC (Klebsiella pneumoniae [14]): 3 µg/mL; MIC50 (Klebsiella pneumoniae [14]): > 256 µg/mL; MIC90 (Klebsiella pneumoniae [14]): > 256 µg/mL |
| GENTAMICIN | – | – | – | – | – | – | – | 128 | > 256 | – | – | – | – | 64 | > 256 | 4 | – | 32 | 16 | – |
| NCC[C@H](O)C(=O)N[C@@H]1C[C@H](N)[C@@H](O[C@H]2O[C@H](CN)[C@@H](O)[C@H](O)[C@H]2O)[C@H](O)[C@H]1O[C@H]1O[C@H](CO)[C@@H](O)[C@H](N)[C@H]1O [AMIKACIN] | 2 (≈ 3.42 µM) | 6 (≈ 10.2 µM) | 16 (≈ 27.3 µM) | 2 (≈ 3.42 µM) | 48 (≈ 82 µM) | 96 (≈ 164 µM) | 1.5 (≈ 2.56 µM) | 6 (≈ 10.2 µM) | 16 (≈ 27.3 µM) | 4 (≈ 6.83 µM) | 6 (≈ 10.2 µM) | 12 (≈ 20.5 µM) | 2 (≈ 3.42 µM) | 16 (≈ 27.3 µM) | 32 (≈ 54.6 µM) | 2 (≈ 3.42 µM) | 1 (≈ 1.71 µM) | 4 (≈ 6.83 µM) | 4 (≈ 6.83 µM) | – |
| C[C@@H](O)[C@H]1C(=O)N2C(C(=O)O)=C(SCCNC=N)C[C@H]12 [IMIPENEM ANHYDROUS] | 0.19 (≈ 0.635 µM) | 0.25 (≈ 0.835 µM) | 0.25 (≈ 0.835 µM) | 0.19 (≈ 0.635 µM) | 0.25 (≈ 0.835 µM) | 0.38 (≈ 1.27 µM) | 0.19 (≈ 0.635 µM) | 0.19 (≈ 0.635 µM) | 0.38 (≈ 1.27 µM) | 0.125 (≈ 0.418 µM) | 0.19 (≈ 0.635 µM) | 0.19 (≈ 0.635 µM) | 0.19 (≈ 0.635 µM) | 0.25 (≈ 0.835 µM) | 0.5 (≈ 1.67 µM) | – | – | – | – | – |
| CC(C)(O/N=C(\C(=O)N[C@@H]1C(=O)N2C(C(=O)[O-])=C(C[n+]3ccccc3)CS[C@H]12)c1csc(N)n1)C(=O)O [CEFTAZIDIME] | 24 (≈ 43.9 µM) | 48 (≈ 87.8 µM) | 128 (≈ 234 µM) | 16 (≈ 29.3 µM) | 32 (≈ 58.5 µM) | 96 (≈ 176 µM) | 16 (≈ 29.3 µM) | 192 (≈ 351 µM) | > 256 | 24 (≈ 43.9 µM) | 32 (≈ 58.5 µM) | 64 (≈ 117 µM) | 4 (≈ 7.32 µM) | 48 (≈ 87.8 µM) | 128 (≈ 234 µM) | 32 (≈ 58.5 µM) | 0.5 (≈ 0.915 µM) | 64 (≈ 117 µM) | 128 (≈ 234 µM) | MIC (Klebsiella pneumoniae [15]): 0.38 µg/mL; MIC50 (Klebsiella pneumoniae [15]): 0.75 µg/mL; MIC90 (Klebsiella pneumoniae [15]): 1 µg/mL; MIC (Klebsiella pneumoniae [16]): 0.125 µg/mL; MIC50 (Klebsiella pneumoniae [16]): 0.25 µg/mL; MIC90 (Klebsiella pneumoniae [16]): > 4 µg/mL; MIC (Klebsiella pneumoniae [17]): 0.25 µg/mL; MIC50 (Klebsiella pneumoniae [17]): 0.38 µg/mL; MIC90 (Klebsiella pneumoniae [17]): 0.5 µg/mL; MIC (Escherichia coli [18]): 0.5 µg/mL; MIC (Escherichia coli [19]): 0.5 µg/mL; MIC (Klebsiella pneumoniae [20]): 0.19 µg/mL; MIC50 (Klebsiella pneumoniae [20]): 0.38 µg/mL; MIC90 (Klebsiella pneumoniae [20]): 0.5 µg/mL; MIC (Escherichia coli [21]): 0.25 µg/mL; MIC (Klebsiella pneumoniae [22]): 0.19 µg/mL; MIC50 (Klebsiella pneumoniae [22]): 0.25 µg/mL; MIC90 (Klebsiella pneumoniae [22]): 0.5 µg/mL; MIC (Escherichia coli [23]): 0.5 µg/mL |
